Reference: US20260125400A1, “TYK2 DEGRADERS AND USES THEREOF” (Kymera Therapeutics, Inc., priority 2023, published 2026)
Read-outs that look alike come from different tables or passages of the source.

Target: T1, TYK2 (Homo sapiens, UniProt P29597)
T1 construct: Degradation of TYK2 in cells was quantitatively measured using Meso Scale Discovery (MSD) technology; endogenous in cells; host or cells: OCI-LY10
Test: TYK2 MSD degradation in OCI-LY10 cells
Assay type: cell-based
Conditions: 4 to 24 hours incubation; for DC50: read-out: TYK2 MSD OCI-LY10 Rel-DC50
Outline: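 OCI-LY10 cells were treated with 9-dose 1:3 series (top 1 to 10 μM final) for 4 to 24 hours at 37° C. Lysate TYK2 quantified by MSD sandwich immunoassay; DC50 and Dmax from four-parameter inhibitor vs. response fit.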

[1] = TYK2 degradation in OCI-LY10 cells

T1 sequence (P29597 whole entry): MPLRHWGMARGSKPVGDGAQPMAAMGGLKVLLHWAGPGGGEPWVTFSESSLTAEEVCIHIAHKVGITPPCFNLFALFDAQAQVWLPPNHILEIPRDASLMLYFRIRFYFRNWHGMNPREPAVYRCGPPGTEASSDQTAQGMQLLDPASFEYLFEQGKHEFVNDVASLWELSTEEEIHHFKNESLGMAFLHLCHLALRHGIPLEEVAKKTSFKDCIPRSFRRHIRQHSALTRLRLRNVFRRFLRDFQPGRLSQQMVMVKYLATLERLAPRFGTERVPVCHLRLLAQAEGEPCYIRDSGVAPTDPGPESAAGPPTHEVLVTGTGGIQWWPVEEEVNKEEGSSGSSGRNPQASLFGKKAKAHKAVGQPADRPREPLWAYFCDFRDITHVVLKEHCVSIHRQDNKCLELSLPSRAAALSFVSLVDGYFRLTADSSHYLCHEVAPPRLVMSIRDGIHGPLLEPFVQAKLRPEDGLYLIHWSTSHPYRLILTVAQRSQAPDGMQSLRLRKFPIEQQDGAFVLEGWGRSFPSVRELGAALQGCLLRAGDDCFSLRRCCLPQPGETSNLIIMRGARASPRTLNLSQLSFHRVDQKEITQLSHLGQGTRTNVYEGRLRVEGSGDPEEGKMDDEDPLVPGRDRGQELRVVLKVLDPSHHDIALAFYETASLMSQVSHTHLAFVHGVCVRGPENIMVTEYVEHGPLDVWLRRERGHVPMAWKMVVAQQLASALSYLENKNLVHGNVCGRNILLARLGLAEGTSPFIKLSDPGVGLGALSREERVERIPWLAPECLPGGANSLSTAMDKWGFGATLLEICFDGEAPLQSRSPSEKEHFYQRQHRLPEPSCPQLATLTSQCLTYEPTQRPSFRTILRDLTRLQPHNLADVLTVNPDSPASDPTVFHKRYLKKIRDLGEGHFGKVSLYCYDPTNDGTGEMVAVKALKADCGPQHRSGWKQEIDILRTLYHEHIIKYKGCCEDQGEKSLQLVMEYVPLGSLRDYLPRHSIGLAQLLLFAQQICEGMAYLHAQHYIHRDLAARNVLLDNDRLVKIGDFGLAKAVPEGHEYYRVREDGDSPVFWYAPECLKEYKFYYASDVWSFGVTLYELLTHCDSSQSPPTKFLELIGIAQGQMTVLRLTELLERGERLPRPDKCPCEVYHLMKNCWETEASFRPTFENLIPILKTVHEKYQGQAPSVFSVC

SMILES	TYK2 MSD OCI-LY10 Dmax % [1]	DC50 [1] [nM]	TYK2 MSD OCI-LY10 Dmax % (OCI-LY10 cells)	DC50 (OCI-LY10 cells) [nM]
CNc1cc(N2CCc3c(-c4cc(CN5CCN(c6ccc7c(c6)n(C)c(=O)n7C6CCC(=O)NC6=O)CC5)ccn4)cccc32)nn2c(C(=O)NC3CC3)cnc12 (centres unmarked) [I-68]	B (B (90 to >75%))	< 1		
CNc1cc(N2CCc3c(CN4CCC(N5CCN(CCc6ccc(Cl)c(C7CCC(=O)NC7=O)c6)CC5)C(F)(F)C4)cccc32)nn2c(C(=O)NC3CC3F)cnc12 (centres unmarked) [I-900]	B (B (90 to >75%))	< 10		
CNc1cc(N2CCc3c(-c4ccc(CN5CC6(CCN(C(=O)c7cc(C)c(Cl)c(N8CCC(=O)NC8=O)c7)CC6(F)F)C5)cn4)cccc32)nn2c(C(=O)NCc3ncco3)cnc12 [I-1077]	B (B (90 to >75%))	< 1		
CNc1cc(N2CCc3c(CC4CCN(C5CCC6(CCN(C(=O)c7ccc(Cl)c(N8CCC(=O)NC8=O)c7)CC6)OC5)CC4)cccc32)nn2c(C(=O)N[C@@H]3C[C@@H]3F)cnc12 (some centres unmarked) [I-685]			C (C (75 to 50%))	< 10
CNc1cc(N2CCc3c(-c4ccc(CN5CCC6(CCN(C(=O)c7cc(C)c(OC)c(N8CCC(=O)NC8=O)c7)CC6)C(F)(F)C5)cn4)cccc32)nn2c(C(=O)N[C@@H]3C[C@@H]3F)cnc12 [I-757]			B (B (90 to >75%))	< 10
CNc1cc(N2CCc3c(CN4CCC(N5CCC6(CC5)CN(C(=O)c5cc(N7CCC(=O)NC7=O)c(Cl)cn5)C6)C(F)(F)C4)cccc32)nn2c(C(=O)N[C@@H]3CC[C@H]3OC)cnc12 (some centres unmarked) [I-1158]	A (A (>90%))	< 1		
CNc1cc(N2CCc3c(-c4ccc(CN5CCC6(CC5)CCN(c5cc(Cl)cc(NC7CCC(=O)NC7=O)c5)CC6)cn4)cccc32)nn2c(C(=O)NC3CC3)cnc12 (centres unmarked) [I-65]	D (D (<50%))	> 100		
CNc1cc(N2CCc3c(CN4CCC(N5CC(CC6CCN(C(=O)c7ccc(Cl)c(N8CCC(=O)NC8=O)c7)CC6)C5)C(F)(F)C4)cccc32)nn2c(C(=O)N[C@@H]3C[C@@H]3F)cnc12 (some centres unmarked) [I-753]			A (A (>90%))	< 1
CNc1cc(N2CCc3c(C#CCN4CCC(N5CCN(C(=O)c6ccc(Cl)c(N7CCC(=O)NC7=O)c6)CC5)C(F)(F)C4)cccc32)nn2c(C(=O)NC3CC3F)cnc12 (centres unmarked) [I-854]	A (A (>90%))	< 1		
CNc1cc(N2CCc3c(-c4ccc(CN5CCC(N6CC(N7CCN(c8ccc9c(c8F)n(C)c(=O)n9C8CCC(=O)NC8=O)CC7)C6)C(F)(F)C5)cn4)cccc32)nn2c(C(=O)N[C@@H]3C[C@@H]3F)cnc12 (some centres unmarked) [I-470]			B (B (90 to >75%))	< 1
CNc1cc(N2CCc3c([C@@H](C)N4CC[C@H](N5CCC6(CCN(C(=O)c7cc(C)c(Cl)c(N8CCC(=O)NC8=O)c7)CC6)CC5)C(F)(F)C4)cccc32)nn2c(C(=O)N[C@@H]3CC[C@H]3OC)cnc12 [I-1128]	A (A (>90%))	< 1		
CNc1cc(N2CCc3c(CC4CCC5(CC4)CCN(C4CCN(C(=O)c6ccc(Cl)c(N7CCC(=O)NC7=O)c6)CC4(F)F)CC5)cccc32)nn2c(C(=O)N[C@@H]3C[C@@H]3F)cnc12 (some centres unmarked) [I-800]	D (D (<50%))	> 100		
CNc1cc(N2CCc3c(-c4ccc(CN5CCC(N6CCC(C7CCN(c8ccc9c(c8)n(C)c(=O)n9C8CCC(=O)NC8=O)CC7)CC6)C(F)(F)C5)cn4)cccc32)nn2c(C(=O)N[C@@H]3C[C@@H]3F)cnc12 (some centres unmarked) [I-360]	B (B (90 to >75%))	< 10		
CNc1cc(N2CCc3c(-c4ccc(OC5CC6(CCN(C(=O)c7cc(C)c(Cl)c(N8CCC(=O)NC8=O)c7)CC6)C5)cn4)cccc32)nn2c(C(=O)N[C@@H]3CC[C@H]3OC)cnc12 [I-997]	A (A (>90%))	< 1		
CNc1cc(N2CCc3c(CN4CCC(CN5CCN(C(=O)c6ccc(Cl)c(N7CCC(=O)NC7=O)c6)CC5)C(F)(F)C4)cccc32)nn2c(C(=O)N[C@@H]3C[C@@H]3F)cnc12 (some centres unmarked) [I-761]			B (B (90 to >75%))	< 10
CNc1cc(N2CCc3c(CN4CCC(N5CCC6(CCN(C(=O)c7cc(N8CCC(=O)NC8=O)c(C)cc7Cl)CC6)CC5)C(F)(F)C4)cccc32)nn2c(C(=O)N[C@@H]3C[C@@H]3F)cnc12 (some centres unmarked) [I-845]	A (A (>90%))	< 1		
CNc1cc(N2CCc3c2ccc(C)c3CN2CCC(N3CCC4(CCN(C(=O)c5ccc(Cl)c(N6CCC(=O)NC6=O)c5)CC4)CC3)C(F)(F)C2)nn2c(C(=O)N[C@@H]3C[C@@H]3F)cnc12 (some centres unmarked) [I-755]			C (C (75 to 50%))	10 to 100
CNc1cc(N2CCc3c(-c4ccc(OCC5CCN(Cc6ccc(Cl)c(C7CCC(=O)NC7=O)c6)CC5)cn4)cccc32)nn2c(C(=O)N[C@@H]3C[C@@H]3F)cnc12 (some centres unmarked) [I-425]			D (D (<50%))	> 100
CNc1cc(N2CCc3c(-c4ncc(CN5CC6(CCN(C(=O)c7cc(N8CCC(=O)NC8=O)c(Cl)cc7F)CC6(F)F)C5)cc4F)cccc32)nn2c(C(=O)NC3CCC3OC)cnc12 (centres unmarked) [I-1005]	A (A (>90%))	< 1		

SMILES	TYK2 MSD OCI-LY10 Dmax % [1]	DC50 [1] [nM]	TYK2 MSD OCI-LY10 Dmax % (OCI-LY10 cells)	DC50 (OCI-LY10 cells) [nM]
CNc1cc(N2CCc3c(-c4ccc(CN5CCC(N6CCN(c7ccc8c(c7)n(C)c(=O)n8C7CCC(=O)NC7=O)CC6)C(F)(F)C5)cn4)cc(F)cc32)nn2c(C(=O)NC3CC3)cnc12 (centres unmarked) [I-61]	B (B (90 to >75%))	< 10		
CNc1cc(N2CCc3c2cccc3C23CC(CN4CCN(C5CCN(C(=O)c6ccc(Cl)c(N7CCC(=O)NC7=O)c6)CC5(F)F)CC4)(C2)C3)nn2c(C(=O)N[C@@H]3C[C@@H]3F)cnc12 (some centres unmarked) [I-832]	A (A (>90%))	< 1		
CNc1cc(N2CCc3c(CC4CCC(N5CCC(N6CCN(C(=O)c7ccc(Cl)c(N8CCC(=O)NC8=O)c7)CC6)C(F)(F)C5)CC4)cccc32)nn2c(C(=O)NC3CC3F)cnc12 (centres unmarked) [I-708]			D (D (<50%))	< 1
CNc1cc(N2CCc3c(C#CCN4CCC(N5CC6(CN(C(=O)c7ccc(Cl)c(N8CCC(=O)NC8=O)c7)C6)C5)C(F)(F)C4)cccc32)nn2c(C(=O)N[C@@H]3C[C@@H]3F)cnc12 (some centres unmarked) [I-795]	A (A (>90%))	< 1		
CNc1cc(N2CCc3c(CN4CCC(N5CCC6(CCN(C(=O)c7ccc(Cl)c(N8CCC(=O)NC8=O)c7)CC6)C5)C(F)(F)C4)cccc32)nn2c(C(=O)N[C@@H]3C[C@@H]3F)cnc12 (some centres unmarked) [I-805]	A (A (>90%))	< 1		
CNc1cc(N2CCc3c(CN4CCC(CN5CCC6(CCN(C(=O)c7cc(C)c(Cl)c(N8CCC(=O)NC8=O)c7)CC6)C(F)(F)C5)C(F)(F)C4)cccc32)nn2c(C(=O)N[C@@H]3CC[C@H]3OC)cnc12 (some centres unmarked) [I-1122]	A (A (>90%))	< 1		
CNc1cc(N2CCc3c(-c4ccc(CN5CCC6(CC5)CC(Oc5ccc(N7CCC(=O)NC7=O)c(Cl)c5)C6)cn4)cccc32)nn2c(C(=O)N[C@@H]3C[C@@H]3F)cnc12 [I-898]	D (D (<50%))	> 100		
CNc1cc(N2CCc3c(CN4CCC(N5CCC(CN6CCN(C(=O)c7ccc(Cl)c(N8CCC(=O)NC8=O)c7)CC6)CC5)C(F)(F)C4)cccc32)nn2c(C(=O)N[C@@H]3C[C@@H]3F)cnc12 (some centres unmarked) [I-716]			B (B (90 to >75%))	< 1
CNc1cc(N2CCc3c(CCN4CCC(N5CCC6(CCN(C(=O)c7ccc(Cl)c(N8CCC(=O)NC8=O)c7)CC6)CC5)C(F)(F)C4)cccc32)nn2c(C(=O)NC3CC3F)cnc12 (centres unmarked) [I-687]			B (B (90 to >75%))	< 1
CNc1cc(N2CCc3c(C#CCN4CCC(N5CCC6(CCN(C(=O)c7ccc(Cl)c(N8CCC(=O)NC8=O)c7)CC6)CC5)C(F)(F)C4)cccc32)nn2c(C(=O)N[C@@H]3C[C@@H]3F)cnc12 (some centres unmarked) [I-700]			B (B (90 to >75%))	< 1
CNc1cc(N2CCc3c(N4CCN(CC5CC6(CCN(C(=O)c7ccc(Cl)c(N8CCC(=O)NC8=O)c7)CC6)C5)CC4)cccc32)nn2c(C(=O)NC3CC3)cnc12 [I-32]	C (C (75 to 50%))	< 10		
CNc1cc(N2CCc3c(-c4ncc([C@@H](C)N5CC6(CCN(C(=O)c7cc(C)c(Cl)c(N8CCC(=O)NC8=O)c7)CC6(F)F)C5)cc4F)cccc32)nn2c(C(=O)N[C@@H]3CC[C@H]3OC)cnc12 [I-1144]	B (B (90 to >75%))	< 1		
CNc1cc(N2CCc3c(CN4CCC(N5CCC6(CCN(c7ccc8c(c7)n(C)c(=O)n8C7CCC(=O)NC7=O)CC6)CC5)C(F)(F)C4)cccc32)nn2c(C(=O)N[C@@H]3C[C@@H]3F)cnc12 (some centres unmarked) [I-237]	B (B (90 to >75%))	< 1		
CNc1cc(N2CCc3c(CN4CCC(N5CCC6(CCN(C(=O)c7ccc(Cl)c(N8CCC(=O)NC8=O)c7)C6)C5)C(F)(F)C4)cccc32)nn2c(C(=O)N[C@@H]3C[C@@H]3F)cnc12 (some centres unmarked) [I-811]	A (A (>90%))	< 1		
CNc1cc(N2CCc3c(-c4ccc(CN5CCC(N6CCC(N(C)c7ccc(Cl)c(N8CCC(=O)NC8=O)c7)CC6)C(F)(F)C5)cn4)cccc32)nn2c(C(=O)N[C@@H]3C[C@@H]3F)cnc12 (some centres unmarked) [I-784]			C (C (75 to 50%))	10 to 100
CNc1cc(N2CCc3c(-c4ccc(CN5CCC6(CC5)CCN(c5cccc7c5n(C)c(=O)n7C5CCC(=O)NC5=O)CC6)cn4)cccc32)nn2c(C(=O)NC3CC3)cnc12 (centres unmarked) [I-54]	C (C (75 to 50%))	< 10		
CNc1cc(N2CCc3c(-c4cc(CN5CCN(C(=O)c6ccc(Cl)c(N7CCC(=O)NC7=O)c6)CC5)ccn4)cccc32)nn2c(C(=O)N[C@@H]3C[C@@H]3F)cnc12 [I-78]	D (D (<50%))	< 10		
CNc1cc(N2CCc3c(-c4cc(CN5CCN(c6ccc7c(c6F)n(C)c(=O)n7C6CCC(=O)NC6=O)CC5)ccn4)cccc32)nn2c(C(=O)NC3CC3)cnc12 (centres unmarked) [I-71]	B (B (90 to >75%))	< 1		
